Five molecules from patent US20260001928A1 (CORTERIA PHARMACEUTICALS, priority 2022, published 2026) can be followed below.

A word on the EC50: it is the concentration that produces a half-maximal response. High values mean a less potent agent, low ones a more potent agent.

The structures appear in SMILES notation. *1 amine or outer side, *2 acyl side, *3 side chain or, on linkers, in order; H or OH if unused. Where a SMILES comes first, the peptide text is derived from it. Side-chain parts run from the residue outwards. [ ]: non-standard residue; d: D form. The star is where a group is joined. C16 diacid = O=C(O)CCCCCCCCCCCCCCC(=O)*; γGlu = O=C(O)[C@H](CCC(=O)[*:2])N[*:1]; αMeL = CC(C)C[C@](C)(N)C(=O)O; Aib = CC(C)(N)C(=O)O

In one experiment the target is T1, CFR1R receptor (Homo sapiens, UniProt P34998).
T1 construct: host or cells: CHO-K1 (clone 2)
T1 sequence (P34998 24-415): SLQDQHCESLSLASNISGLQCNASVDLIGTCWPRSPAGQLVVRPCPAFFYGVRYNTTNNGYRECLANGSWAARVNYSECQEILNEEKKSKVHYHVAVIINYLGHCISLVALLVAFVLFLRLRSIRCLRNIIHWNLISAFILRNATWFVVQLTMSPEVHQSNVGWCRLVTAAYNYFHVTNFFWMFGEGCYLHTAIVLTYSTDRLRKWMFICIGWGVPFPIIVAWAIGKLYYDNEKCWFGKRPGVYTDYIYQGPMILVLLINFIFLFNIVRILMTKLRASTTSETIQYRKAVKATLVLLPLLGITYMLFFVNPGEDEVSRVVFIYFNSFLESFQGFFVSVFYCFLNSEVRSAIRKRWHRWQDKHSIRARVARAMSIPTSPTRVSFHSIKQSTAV
As to the kind of experiment: Activity at anti-target CFR1R receptor, cAMP assay in CRF1R-overexpression CHO-K1 cells. The experiment is classed as cell-based. The note with it: 100% = Sauvagine at 100 nM; for EC50: cAMP. The essentials: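 Clone 2 cells were cultured in F12 (Hams)/10% FBS/400 μg/ml G418 at 37° C./5% CO2, frozen in medium with 10% DMSO, and thawed vials used. The protocol followed the TeloHAEC procedure, with 4000 cells/well final and Sauvagine at 100 nM defining 100% activation.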
On the technique in general: cAMP levels reflect the balance of adenylyl cyclase and phosphodiesterase activity.

The next experiment addresses T2, human CRF2a receptor (Homo sapiens, UniProt Q13324).
T2 construct: expressed in transfected cells; host or cells: TeloHEAC cells
T2 sequence (Q13324 1-411): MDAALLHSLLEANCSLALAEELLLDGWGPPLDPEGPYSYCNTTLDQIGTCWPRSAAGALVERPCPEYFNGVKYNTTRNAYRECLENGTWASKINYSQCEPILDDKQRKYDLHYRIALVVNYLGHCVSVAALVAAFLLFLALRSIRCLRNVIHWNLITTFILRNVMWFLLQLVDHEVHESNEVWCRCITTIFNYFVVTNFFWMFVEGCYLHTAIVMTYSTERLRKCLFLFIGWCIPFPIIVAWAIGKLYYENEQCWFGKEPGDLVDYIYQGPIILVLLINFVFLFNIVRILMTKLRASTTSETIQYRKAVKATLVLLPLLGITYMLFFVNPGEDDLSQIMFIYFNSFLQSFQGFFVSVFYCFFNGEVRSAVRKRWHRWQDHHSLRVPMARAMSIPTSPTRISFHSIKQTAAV
As to the kind of experiment: Activity at human CRF2a receptor, cAMP functional assay in TeloHEAC cells. Type of experiment: cell-based. The note with it: TeloHEAC cells stably expressing human CRF2a receptor, relative to urocortin 2 (100 nM = 100%). On the procedure: Agonism of compounds for human corticotropin-releasing factor 2a (CRF2a receptor) was determined by a functional assay measuring cAMP modulation upon treatment of TeloHEAC cells stably expressing human CRF2a receptor. Compounds were dissolved at 0.5 mM in 100% DMSO and serially diluted (1:2) in 100% DMSO for 16 dilutions. 20 nL of each dilution was then transferred to 384-well assay plate using an acoustic droplet ejection instrument. 5 μL of compound buffer (1×HBSS; 20 mM HEPES,) were then added to each well. Prior to use, frozen cells were thawed quickly at 37° C. and washed (5 min at 900 rpm) with 20 mL cell buffer (1×HBSS; 20 mM HEPES). Cells were resuspended in cell buffer added with 2 mM IBMX and adjusted to a cell density of […]. 5 μL cells (final dell density: 10000 cells/well) were dispensed in the compound-containing 384-well assay plate and incubated for 30 minutes 37° C. The cAMP level in treated cells was determined using the Cisbio 62AM4PEC kit according to manufacturer's instruction. Finally, plates were incubated for 1 h at room temperature before measuring the fluorescence ratio between 665/620 nm. The percent activity value (E %) was calculated by setting 100 nM of urocortin 2 (UCN2) as 100%. The in vitro potency of the compounds was quantified by determining the concentrations that caused 50% activation of maximal response (EC50) relative to urocortin 2.

Take `CC[C@H](C)[C@H](NC(C)=O)C(=O)N[C@H](C(=O)N[C@@H](CC(C)C)C(=O)N[C@@H](CO)C(=O)N[C@@H](CC(C)C)C(=O)N[C@@H](CC(=O)O)C(=O)N[C@@H](C(=O)N1CCC[C@H]1C(=O)N[C@H](C(=O)N[C@@H](CCCCN)C(=O)N[C@@H](CC(C)C)C(=O)N[C@@H](CCCCNC(=O)CC[C@H](NC(=O)CCCCCCCCCCCCCCC(=O)O)C(=O)O)C(=O)N[C@@H](CCC(N)=O)C(=O)N[C@H](C(=O)N[C@@H](CC(C)C)C(=O)N[C@@H](CC(C)C)C(=O)N[C@@H](CCCCN)C(=O)N[C@@H](CCC(N)=O)C(=O)N[C@@H](CCC(=O)O)C(=O)N[C@@H](CCCNC(=N)N)C(=O)N[C@@H](CCC(N)=O)C(=O)N[C@@H](CCCCN)C(=O)N[C@@H](CCCCN)C(=O)N[C@@H](CCC(N)=O)C(=O)N[C@@H](CCCNC(=N)N)C(=O)N[C@@H](CCC(=O)O)C(=O)N[C@@H](CCC(N)=O)C(=O)N[C@@H](C)C(=O)N[C@@H](CCC(=O)O)C(=O)N[C@@H](CCCCN)C(=O)N[C@@H](CC(N)=O)C(=O)NC(C)(C)C(=O)N[C@@H](CCC(N)=O)C(=O)N[C@H](C(=O)N[C@@H](CC(C)C)C(=O)N[C@@H](CCC(=O)O)C(=O)N[C@@H](CCC(N)=O)C(=O)N[C@H](C(N)=O)C(C)C)[C@@H](C)CC)[C@@H](C)CC)[C@@H](C)CC)C(C)C)C(C)C` [compound 16] (Ac-IVLSLD[dV]PIKLK([γGlu-C16 diacid])QILLKQERQKKQREQAEKN[Aib]QILEQV-NH2): at CFR1R receptor, the “Emax (% I)” value was 47 % I. On human CRF2a receptor, this molecule came in with an EC50 of 0.13 nM.
In the case of `CC[C@H](C)[C@H](NC(C)=O)C(=O)N[C@H](C(=O)N[C@@H](CC(C)C)C(=O)N[C@@H](CO)C(=O)N[C@@H](CC(C)C)C(=O)N[C@@H](CC(=O)O)C(=O)N[C@@H](C(=O)N1CCC[C@H]1C(=O)N[C@H](C(=O)N[C@@H](CCCCN)C(=O)N[C@@H](CC(C)C)C(=O)N[C@@H](CCCCNC(=O)CC[C@H](NC(=O)CCCCCCCCCCCCCCC(=O)O)C(=O)O)C(=O)N[C@@H](CCC(N)=O)C(=O)N[C@H](C(=O)N[C@@H](CC(C)C)C(=O)N[C@@H](CC(C)C)C(=O)N[C@@H](CCCCN)C(=O)N[C@@H](CCC(N)=O)C(=O)N[C@@H](CCC(=O)O)C(=O)N[C@@H](CCCNC(=N)N)C(=O)N[C@@H](CCC(N)=O)C(=O)N[C@@H](CCCCN)C(=O)N[C@@H](CCCCN)C(=O)N[C@@H](CCC(N)=O)C(=O)N[C@@H](CCCNC(=N)N)C(=O)N[C@@H](CCC(=O)O)C(=O)N[C@@H](CCC(N)=O)C(=O)N[C@@H](C)C(=O)N[C@@H](CCC(=O)O)C(=O)N[C@@H](CCCCN)C(=O)N[C@@H](CC(N)=O)C(=O)N[C@@H](CCC(=O)O)C(=O)N[C@@H](CCC(N)=O)C(=O)N[C@H](C(=O)N[C@@H](CC(C)C)C(=O)N[C@@H](CCC(=O)O)C(=O)N[C@@H](CCC(N)=O)C(=O)N[C@H](C(N)=O)C(C)C)[C@@H](C)CC)[C@@H](C)CC)[C@@H](C)CC)C(C)C)C(C)C` [compound 17] (Ac-IVLSLD[dV]PIKLK([γGlu-C16 diacid])QILLKQERQKKQREQAEKNEQILEQV-NH2), the “Emax (% I)” value at CFR1R receptor came to 12 % I. For the same molecule, the half-maximal effective concentration (EC50) at CFR1R receptor was above 250 nM; at human CRF2a receptor, 0.21 nM.
Take `CC[C@H](C)[C@H](NC(C)=O)C(=O)N[C@H](C(=O)N[C@@H](CC(C)C)C(=O)N[C@@H](CO)C(=O)N[C@@H](CC(C)C)C(=O)N[C@@H](CC(=O)O)C(=O)N[C@@H](C(=O)N1CCC[C@H]1C(=O)N[C@H](C(=O)N[C@@H](CCCCN)C(=O)N[C@@H](CC(C)C)C(=O)N[C@@H](CCCCNC(=O)CC[C@H](NC(=O)CCCCCCCCCCCCCCC(=O)O)C(=O)O)C(=O)N[C@@H](CCC(N)=O)C(=O)NC(C)(C)C(=O)N[C@@H](CC(C)C)C(=O)N[C@@H](CC(C)C)C(=O)N[C@@H](CCCCN)C(=O)N[C@@H](CCC(N)=O)C(=O)N[C@@H](CCC(=O)O)C(=O)N[C@@H](CCCNC(=N)N)C(=O)N[C@@H](CCC(N)=O)C(=O)N[C@@H](CCCCN)C(=O)N[C@@H](CCCCN)C(=O)N[C@@H](CCC(N)=O)C(=O)N[C@@H](CCCNC(=N)N)C(=O)N[C@@H](CCC(=O)O)C(=O)N[C@@H](CCC(N)=O)C(=O)N[C@@H](C)C(=O)N[C@@H](CCC(=O)O)C(=O)N[C@@H](CCCCN)C(=O)N[C@@H](CC(N)=O)C(=O)N[C@H](C(=O)N[C@@H](CCC(N)=O)C(=O)N[C@H](C(=O)N[C@@H](CC(C)C)C(=O)N[C@@H](CCC(=O)O)C(=O)N[C@@H](CCC(N)=O)C(=O)N[C@H](C(N)=O)C(C)C)[C@@H](C)CC)C(C)C)[C@@H](C)CC)C(C)C)C(C)C` [compound 18] (Ac-IVLSLD[dV]PIKLK([γGlu-C16 diacid])Q[Aib]LLKQERQKKQREQAEKNVQILEQV-NH2): on CFR1R receptor, the “Emax (% I)” value is 10 % I and the EC50 was above 250 nM. Moreover, on human CRF2a receptor, the EC50 worked out at 3.55 nM.
As for `CC[C@H](C)[C@H](NC(C)=O)C(=O)N[C@H](C(=O)N[C@@H](CC(C)C)C(=O)N[C@@H](CO)C(=O)N[C@@H](CC(C)C)C(=O)N[C@@H](CC(=O)O)C(=O)N[C@H](C(=O)N1CCC[C@H]1C(=O)N[C@H](C(=O)N[C@@H](CCCCN)C(=O)N[C@@](C)(CC(C)C)C(=O)N[C@@H](CCCCNC(=O)CC[C@H](NC(=O)CCCCCCCCCCCCCCC(=O)O)C(=O)O)C(=O)N[C@@H](CCC(N)=O)C(=O)NC(C)(C)C(=O)N[C@@H](CC(C)C)C(=O)N[C@@H](CC(C)C)C(=O)N[C@@H](CCCCN)C(=O)N[C@@H](CCC(N)=O)C(=O)N[C@@H](CCC(=O)O)C(=O)N[C@@H](CCCNC(=N)N)C(=O)N[C@@H](CCC(N)=O)C(=O)N[C@@H](CCCCN)C(=O)N[C@@H](CCCCN)C(=O)N[C@@H](CCC(N)=O)C(=O)N[C@@H](CCCNC(=N)N)C(=O)N[C@@H](CCC(=O)O)C(=O)N[C@@H](CCC(N)=O)C(=O)N[C@@H](C)C(=O)N[C@@H](CCC(=O)O)C(=O)N[C@@H](CCCCN)C(=O)N[C@@H](CC(N)=O)C(=O)NC(C)(C)C(=O)N[C@@H](CCC(N)=O)C(=O)N[C@H](C(=O)N[C@@H](CC(C)C)C(=O)N[C@@H](CCC(=O)O)C(=O)N[C@@H](CCC(N)=O)C(=O)N[C@H](C(N)=O)C(C)C)[C@@H](C)CC)[C@@H](C)CC)C(C)C)C(C)C` [compound 20] (Ac-IVLSLDVPIK[αMeL]K([γGlu-C16 diacid])Q[Aib]LLKQERQKKQREQAEKN[Aib]QILEQV-NH2), on CFR1R receptor, the “Emax (% I)” value stood at 3 % I and the EC50 is above 250 nM. The molecule also gave a concentration for a half-maximal effect (EC50) at human CRF2a receptor of 1.09 nM.
As for `CC[C@H](C)[C@H](NC(C)=O)C(=O)N[C@H](C(=O)N[C@@H](CC(C)C)C(=O)N[C@@H](CO)C(=O)N[C@@H](CC(C)C)C(=O)N[C@@H](CC(=O)O)C(=O)N[C@@H](C(=O)N1CCC[C@H]1C(=O)N[C@H](C(=O)N[C@@H](CCCCN)C(=O)N[C@@H](CC(C)C)C(=O)N[C@@H](CCCCNC(=O)CC[C@H](NC(=O)CCCCCCCCCCCCCCC(=O)O)C(=O)O)C(=O)N[C@@H](CCCCN)C(=O)N[C@H](C(=O)N[C@@H](CC(C)C)C(=O)N[C@@H](CC(C)C)C(=O)N[C@@H](CCCCN)C(=O)N[C@@H](CCC(N)=O)C(=O)N[C@@H](CCC(=O)O)C(=O)N[C@@H](CCCNC(=N)N)C(=O)N[C@@H](CCC(N)=O)C(=O)N[C@@H](CCCCN)C(=O)N[C@@H](CCCCN)C(=O)N[C@@H](CCC(N)=O)C(=O)N[C@@H](CCCNC(=N)N)C(=O)N[C@@H](CCC(=O)O)C(=O)N[C@@H](CCC(N)=O)C(=O)N[C@@H](C)C(=O)N[C@@H](CCC(=O)O)C(=O)N[C@@H](CCCCN)C(=O)N[C@@H](CC(N)=O)C(=O)NC(C)(C)C(=O)N[C@@H](CCC(N)=O)C(=O)N[C@H](C(=O)N[C@@H](CC(C)C)C(=O)N[C@@H](CCC(=O)O)C(=O)N[C@@H](CCC(N)=O)C(=O)N[C@H](C(N)=O)C(C)C)[C@@H](C)CC)[C@@H](C)CC)[C@@H](C)CC)C(C)C)C(C)C` [compound 21] (Ac-IVLSLD[dV]PIKLK([γGlu-C16 diacid])KILLKQERQKKQREQAEKN[Aib]QILEQV-NH2), the “Emax (% I)” value on CFR1R receptor amounted to 5 % I. In addition, the EC50 is above 250 nM at CFR1R receptor and 0.34 nM on human CRF2a receptor.
